Measurements: US9221798B2, “4-substituted-(3-substituted-1H-pyrazole-5-amino)-pyrimidine derivatives having activity of inhibiting protein kinase and use thereof” (Zhejian Hisun Pharmaceutical Co., Ltd., priority 2011, dated 2015)

Assays:
[1] = test system: K562; assay: Test for activity of inhibiting tumor cells (CellTiter-Glo cell viability), K562; type: cell-based; conditions: Homo sapiens, half growth inhibition concentration, 72 hours incubation
From the text: (§1) Reagents and consumables: 1. Tumor cells were available from HD Biosciences (Shanghai) Co., Ltd. and detected mycoplasma-free; 2. RPMI 1640 Culture Medium, available from U.S. Invitrogen, Code No.: 31800-022; 3. F12K Culture Medium, available from U.S. Invitrogen, Code No.: 21127-022; 4. DMEM Culture Medium, available from U.S. Invitrogen, Code No.: 12100-046; 5. Fetal bovine serum, available from U.S. Hyclone, Code No.: CH30160.03; 6. Penicillin-Streptomycin liquid, available from U.S. Invitrogen, Code No.: 15140-122; 7. Gemcitabine, available from U.K. Tocris, Code No.: 3259; 8. DMSO, available from U.S. Sigma, Code No.: D4540; 9. 96-well cell culture plate, available from U.S. Corning, Code No.: 3610; 10. CellTiter-Glo Luminescent Cell Viability Assay, available from U.S. Promega, Code No.: G7571; 11. Plate Reader, available from U.S. Perkin Elmer, EnVision Multilabel Plate Reader.
(§2) The cell culture mediums: 1. RPMI 1640 whole cell culture medium: a RPMI 1640 culture medium containing 10% fetal bovine serum and 100 U penicillin and 100 μg/mL streptomycin. 2. F12K whole cell culture medium: a F12K culture medium containing 10% fetal bovine serum and 100 U penicillin and 100 μg/mL streptomycin. 3. DMEM whole cell culture medium: a DMEM culture medium containing 10% fetal bovine serum and 100 U penicillin and 100 μg/mL streptomycin.
Preparation of the compounds: 1. A test compound was formulated into a mother liquor in a concentration of 30 mM, and the mother liquor was divided into aliquots and stored in a refrigerator at −80° C. 2. The mother liquors of the test compounds in a concentration of 30 mM were diluted with DMSO to a series of solutions in gradient concentrations, wherein these gradient concentrations included 25 mM, 5 mM, 1 mM, 200 μM, 40 μM, 8 μM, 1.6 μM, 0.32 μM. Then the formulated solutions in gradient concentrations were diluted five times with the whole cell culture mediums, and then the gradient concentrations of the test compounds included 5 mM, 1 mM, 200 μM, 40 μM, 8 μM, 1.6 μM, 0.32 μM, 0.064 μM dissolved in 20% DMSO. 3. Only before the experiments began, the prepared solutions of the test compounds in series of gradient concentrations were diluted one hundred times with the whole cell culture mediums under sterile conditions, wherein these gradient concentrations of the test compounds included 50 μM, 10 μM, 2 μM, 0.4 μM, 0.08 μM, 16 nM, 3.2 nM, 0.64 nM; which were 2× the compound solutions and they could be used to treat the cells. 4. […]
(§3) Procedures: 1. […] The cell plate was placed into the plate reader for analysis. Set to read chemiluminescence and record the data.
(§4) Data Process: The data read in each well were required to be converted into cell viability. The cell viability could be calculated by using formulae. […]

[2] = target: Raf-1 kinase (Homo sapiens, UniProt P04049); assay: Assay for the inhibiting activity of kinase (Glo Plus / ADP Glo / Caliper), Raf-1; type: biochemical; conditions: kinase inhibition, incubated at 30° C. for 1 hour
Procedure: (§5) Experimental Reagents: a buffer solution of 25 mM HEPES, 10 mM MgCl2, 0.01% Triton X-100, 100 μg/mL BSA, 2.5 mM DTT, pH=7.4; ATP was available from U.S. Sigma (cat. A7699); Glo Plus Kinase Reagent was available from U.S. Promega (cat. V3773); ADP Glo Reagent was available from U.S. Promega (cat. V9102).
(§6) Procedures of the detection experiment for Glo Plus and ADP Glo kinases: the kinase(s), substrate, ATP and the compound(s) to be tested were mixed on a 384-well culture plate, with a total volume of 10 μL of the mixture, […], and then the culture plate was incubated at 30° C. for 1 hour. Test for Glo Plus kinase activity: add 10 μL of Glo Plus kinase per well to the mixture and then incubate at 27° C. for 20 minutes. Test for ADP Glo kinase activity: add 10 μL of ADP Glo per well to the culture plate, and then incubate at 27° C. for 40 minutes. Then a kinase detection reagent (10 μL per well) was added to the culture plate which was incubated at 27° C. for 30 minutes. Read the values from the plate reader to determine inhibition data.
(§7) Biologic testing procedures of Caliper kinase: the kinase, substrate, ATP and the compound to be tested were mixed in a 96-well culture plate, with a total volume of 50 μL of the mixture, and then the culture plate was incubated at 30° C. for 1 hour. Add 20 μL of 35 mM EDTA to the culture plate. A solution of 26 μL of the reaction mixture was transferred to a 384-well culture plate, and read the values on a plate reader to determine inhibition data.

[3] = target: T1, Aurora A kinase (Homo sapiens, UniProt O14965); assay: Assay for the inhibiting activity of kinase (Glo Plus / ADP Glo / Caliper), Aurora A; type: biochemical; conditions: kinase inhibition, incubated at 30° C. for 1 hour
T1 sequence (O14965 1-403): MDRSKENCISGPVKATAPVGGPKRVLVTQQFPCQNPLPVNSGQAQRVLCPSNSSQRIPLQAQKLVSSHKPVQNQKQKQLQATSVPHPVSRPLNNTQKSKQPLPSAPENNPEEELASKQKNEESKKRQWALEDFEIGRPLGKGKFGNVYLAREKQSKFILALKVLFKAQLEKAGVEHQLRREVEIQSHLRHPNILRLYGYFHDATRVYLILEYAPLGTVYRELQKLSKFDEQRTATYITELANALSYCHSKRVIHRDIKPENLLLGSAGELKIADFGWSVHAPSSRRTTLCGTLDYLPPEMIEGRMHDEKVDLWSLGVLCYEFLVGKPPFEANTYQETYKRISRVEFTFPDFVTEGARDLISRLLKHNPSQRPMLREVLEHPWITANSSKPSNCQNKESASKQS
Procedure: as §5, §6, §7

[4] = test system: HepG2; assay: Test for activity of inhibiting tumor cells (CellTiter-Glo cell viability), HepG2; type: cell-based; conditions: Homo sapiens, half growth inhibition concentration, 72 hours incubation
From the text: as §1, §2
Preparation of the compounds: 1. A test compound was formulated into a mother liquor in a concentration of 30 mM, and the mother liquor was divided into aliquots and stored in a refrigerator at −80° C. 2. The mother liquors of the test compounds in a concentration of 30 mM were diluted with DMSO to a series of solutions in gradient concentrations, wherein these gradient concentrations included 25 mM, 5 mM, 1 mM, 200 μM, 40 μM, 8 μM, 1.6 μM, 0.32 μM. […]
as §3, §4

[5] = test system: A549; assay: Test for activity of inhibiting tumor cells (CellTiter-Glo cell viability), A549; type: cell-based; conditions: Homo sapiens, half growth inhibition concentration, 72 hours incubation
From the text: as §1
The cell culture mediums: 1. RPMI 1640 whole cell culture medium: a RPMI 1640 culture medium containing 10% fetal bovine serum and 100 U penicillin and 100 μg/mL streptomycin. 2. […]
as §3, §4

Chain of Raf-1 kinase (P04049 whole entry): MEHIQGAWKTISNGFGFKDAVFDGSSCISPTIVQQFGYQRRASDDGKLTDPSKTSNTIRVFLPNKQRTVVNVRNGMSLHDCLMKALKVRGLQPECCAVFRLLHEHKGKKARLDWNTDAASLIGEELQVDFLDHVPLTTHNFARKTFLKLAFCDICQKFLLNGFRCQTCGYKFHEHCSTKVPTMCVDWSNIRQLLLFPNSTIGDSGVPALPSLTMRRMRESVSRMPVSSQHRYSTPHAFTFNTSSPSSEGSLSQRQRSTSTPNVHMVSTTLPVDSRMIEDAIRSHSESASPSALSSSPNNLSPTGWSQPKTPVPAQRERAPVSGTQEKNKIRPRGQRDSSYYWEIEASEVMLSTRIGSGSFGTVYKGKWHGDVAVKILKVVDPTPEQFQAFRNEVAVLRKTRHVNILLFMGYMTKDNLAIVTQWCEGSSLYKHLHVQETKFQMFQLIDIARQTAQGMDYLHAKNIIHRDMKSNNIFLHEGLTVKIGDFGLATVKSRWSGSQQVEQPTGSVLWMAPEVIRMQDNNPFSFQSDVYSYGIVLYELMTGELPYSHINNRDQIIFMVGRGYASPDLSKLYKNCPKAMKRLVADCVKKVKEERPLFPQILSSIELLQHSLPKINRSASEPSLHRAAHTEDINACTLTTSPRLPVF

Cc1cc(Nc2nc(Nc3cc(NC(=O)Nc4ccc(Cl)c(C(F)(F)F)c4)ccc3C)ncc2N)n[nH]1 [Compound 8, 1-(4-chloro-3-trifluoromethyl-phenyl)-3-{4-methyl-3-[5-methyl-4-(5-methyl-1H-pyrazol-3-yl-amino)-5-amino-pyrimidin-2-yl-amino]-phenyl}-urea]
EC50 [1]: 11.9 µM
IC50 [2]: 0.41 µM
IC50 [3]: 2.1 µM

Cc1cc(Nc2nc(Nc3cc(NC(=O)Nc4ccc(Cl)c(C(F)(F)F)c4)ccc3C)ncc2F)n[nH]1 [Compound 2, 1-(4-chloro-3-trifluoromethyl-phenyl)-3-{3-[5-fluoro-4-(5-methyl-1H-pyrazol-3-yl-amino)-pyrimidin-2-yl-amino]-4-methyl-phenyl}-urea]
EC50 [1]: 4 µM
IC50 [2]: 0.38 µM
IC50 [3]: 0.78 µM
EC50 [4]: 3.82 µM

Cc1cc(Nc2nc(Nc3cc(NC(=O)Nc4ccc(Cl)c(C(F)(F)F)c4)ccc3C)ncc2O)n[nH]1 [Compound 11, 1-(4-chloro-3-trifluoromethyl-phenyl)-3-{3-[5-hydroxy-4-(5-methyl-1H-pyrazol-3-yl-amino)-pyrimidin-2-yl-amino]-4-methyl-phenyl}-urea]
IC50 [2]: 2.14 µM

Cc1cc(Nc2nc(Nc3cc(NC(=O)Nc4ccc(Cl)c(C(F)(F)F)c4)ccc3C)ncc2C)n[nH]1 [Compound 6, 1-(4-chloro-3-trifluoromethyl-phenyl)-3-{4-methyl-3-[5-methyl-4-(5-methyl-1H-pyrazol-3-yl-amino)-pyrimidin-2-yl-amino]-phenyl}-urea]
EC50 [1]: 4.87 µM
IC50 [2]: 0.25 µM
IC50 [3]: 0.14 µM
EC50 [4]: 6.98 µM

COc1cnc(Nc2cc(NC(=O)Nc3ccc(Cl)c(C(F)(F)F)c3)ccc2C)nc1Nc1cc(C)[nH]n1 [Compound 9, 1-(4-chloro-3-trifluoromethyl-phenyl)-3-{3-[5-methoxy-4-(5-methyl-1H-pyrazol-3-yl-amino)-pyrimidin-2-yl-amino]-4-methyl-phenyl}-urea]
EC50 [5]: 13.3 µM
EC50 [1]: 4.8 µM
IC50 [2]: 0.24 µM
IC50 [3]: 0.34 µM
EC50 [4]: 17.7 µM

Cc1cc(Nc2nc(Nc3cc(NC(=O)Nc4ccc(Cl)c(C(F)(F)F)c4)ccc3C)ncc2C(F)(F)F)n[nH]1 [Compound 3, 1-(4-chloro-3-trifluoromethyl-phenyl)-3-{4-methyl-3-[4-(5-methyl-1H-pyrazol-3-yl-amino)-5-trifluoromethyl-pyrimidin-2-yl-amino]-phenyl}-urea]
IC50 [2]: 1.53 µM

Cc1cc(Nc2ccnc(Nc3cc(NC(=O)Nc4ccc(Cl)c(C(F)(F)F)c4)ccc3C)n2)n[nH]1 [Compound 4, 1-(4-chloro-3-trifluoromethyl-phenyl)-3-{4-methyl-3-[4-(5-methyl-1H-pyrazol-3-yl-amino)-pyrimidin-2-yl-amino]-phenyl}-urea]
IC50 [3]: 2.68 µM
